US10676443B2, “Method for producing (4S)-4-[4-cyano-2-(methylsulfonyl)phenyl]-3,6-dimethyl-2-oxo-1-[3-(trifluoromethyl)phenyl]-1,2,3,4-tetrahydro pyrimidine-5-carbonitrile” (pH Pharma Co., Ltd., priority 2015, dated 2020)

Assay: stability of crystal form (A) on storage, even at high humidity
Assay type: physicochemical
Settings: solid crystal form (A)

stability properties (even at high humidity): very good
storage time with no loss of stability (storage): more than 3 years
Compound: CC1=C(C#N)[C@@H](c2ccc(C#N)cc2S(C)(=O)=O)N(C)C(=O)N1c1cccc(C(F)(F)F)c1 [crystal form (A), (S)-4-[4-cyano-2-(methylsulfonyl)phenyl]-3,6-dimethyl-2-oxo-1-[3-(trifluoromethyl)phenyl]-1,2,3,4-tetrahydropyrimidine-5-carbonitrile]
